Values after ≈ are worked out from the molar mass of the structure shown. Read-outs that look alike come from different tables or passages of the source.
Experiments:
Test in all cases: in vitro antibacterial evaluation, MIC by broth dilution
Format in all cases: cell-based
[1] = tested on: Streptococcus sp.; conditions: broth dilution, 18 hours at 35° C.
Protocol: (§1) Methods for in vitro Antibacterial Evaluation (Table 1)
(§2) The minimum inhibitory concentration (MIC), the lowest concentration of the antibiotic which inhibits growth of the test organism, is determined by the broth dilution method using Muller-Hinton II […] (Baltimore Biological Laboratories) following the recommendations of the National Committee for Clinical Laboratory Standards [Methods for dilution antimicrobial susceptibility tests for bacteria that grow aerobically, approved standard M7-A2, National Committee for Clinical Laboratory Standards, Villanova, Pa.].
(§3) An inoculum level of 5×10^5 CFU/mL, and a range of antibiotic concentrations (64-0.06 μg/mL) is used. […] The test organisms include a spectrum of Gram-positive bacteria comprised of Staphylococcus sp., Streptococcus sp. and Enterococcus sp. These organisms include recent clinical isolates that are resistant to methicillin, penicillin and/or vancomycin.

[2] = tested on: Staphylococcus sp.; conditions: broth dilution, 18 hours at 35° C.
Protocol: as §1, §2, §3

[3] = tested on: Enterococcus sp.; conditions: broth dilution, 18 hours at 35° C.
Protocol: as §1, §2, §3

[4] = tested on: Escherichia coli; conditions: Escherichia coli, broth dilution, 18 hours at 35° C.
Outline: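 Broth dilution MIC per NCCLS M7-A2 in Mueller-Hinton II medium, inoculum 5×10^5 CFU/mL, antibiotic range 64-0.06 μg/mL. MIC taken as lowest concentration inhibiting growth.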

MIC Streptococcus pneumoniae (ATCC 6301) ([1]; strain ATCC 6301): 64 µg/mL (≈ 63 µM)
MIC Streptococcus pneumoniae (GC 1894) ([1]; strain GC 1894): 64 µg/mL (≈ 63 µM)
MIC Streptococcus pyogenes (GC 4563) ([1]; strain GC 4563): 32 µg/mL (≈ 31.5 µM)
MIC Streptococcus agalactiae (GC 4564) ([1]; strain GC 4564): 64 µg/mL (≈ 63 µM)
MIC Streptococcus pneumoniae (GC 4565) ([1]; strain GC 4565): >64 µg/mL
MIC ([1]; strain ATCC 6301, read-out: MIC Streptococcus pneumoniae (ATCC 6301)): 64 µg/mL (≈ 63 µM)
MIC ([1]; strain GC 1894, read-out: MIC Streptococcus pneumoniae (GC 1894)): 64 µg/mL (≈ 63 µM)
MIC ([1]; strain GC 4563, read-out: MIC Streptococcus pyogenes (GC 4563)): 32 µg/mL (≈ 31.5 µM)
MIC ([1]; strain GC 4564, read-out: MIC Streptococcus agalactiae (GC 4564)): 64 µg/mL (≈ 63 µM)
MIC ([1]; strain GC 4565, read-out: MIC Streptococcus pneumoniae (GC 4565)): > 64 µg/mL
MIC ([2]; Staphylococcus, strain GC 4543, read-out: MIC Staphylococcus aureus-SMITH (GC 4543)): > 64 µg/mL
MIC ([2]; Staphylococcus, strain GC 4547, read-out: MIC Coagulase Negative Staphylococcus (GC 4547)): 64 µg/mL (≈ 63 µM)
MIC ([2]; Staphylococcus, strain GC 4548, read-out: MIC Coagulase Negative Staphylococcus (GC 4548)): > 64 µg/mL
MIC ([2]; Staphylococcus, strain GC 4549, read-out: MIC Coagulase Negative Staphylococcus (GC 4549)): 32 µg/mL (≈ 31.5 µM)
MIC ([2]; Staphylococcus, strain GC 4551, read-out: MIC Coagulase Negative Staphylococcus (GC 4551)): 64 µg/mL (≈ 63 µM)
MIC ([2]; strain ATCC 29213, read-out: MIC Staphylococcus aureus (ATCC 29213)): > 64 µg/mL
MIC ([2]; strain GC 1131, read-out: MIC Staphylococcus aureus (GC 1131)): > 64 µg/mL
MIC ([2]; strain GC 3051, read-out: MIC Staphylococcus aureus (GC 3051)): > 64 µg/mL
MIC ([2]; strain GC 3053, read-out: MIC Staphylococcus aureus (GC 3053)): > 64 µg/mL
MIC ([2]; strain GC 4541, read-out: MIC Staphylococcus aureus (GC 4541)): > 64 µg/mL
MIC ([2]; strain GC 4542, read-out: MIC Staphylococcus aureus (GC 4542)): > 64 µg/mL
MIC ([2]; strain GC 4544, read-out: MIC Staphylococcus aureus (GC 4544)): > 64 µg/mL
MIC ([2]; strain GC 4545, read-out: MIC Staphylococcus aureus (GC 4545)): > 64 µg/mL
MIC Staphylococcus aureus (ATCC 29213) ([2]; strain ATCC 29213): >64 µg/mL
MIC Staphylococcus aureus (GC 3051) ([2]; strain GC 3051): >64 µg/mL
MIC Staphylococcus aureus (GC 3053) ([2]; strain GC 3053): >64 µg/mL
MIC Staphylococcus aureus (GC 4541) ([2]; strain GC 4541): >64 µg/mL
MIC Staphylococcus aureus (GC 4542) ([2]; strain GC 4542): >64 µg/mL
MIC Staphylococcus aureus (GC 4544) ([2]; strain GC 4544): >64 µg/mL
MIC Staphylococcus aureus (GC 4545) ([2]; strain GC 4545): >64 µg/mL
MIC Enterococcus faecalis (ATCC 29212) ([3]; strain ATCC 29212): 64 µg/mL (≈ 63 µM)
MIC Enterococcus faecalis (GC 2242) ([3]; strain GC 2242): 64 µg/mL (≈ 63 µM)
MIC Enterococcus faecium (GC 2243) ([3]; strain GC 2243): 64 µg/mL (≈ 63 µM)
MIC Enterococcus faecalis (GC 2691) ([3]; strain GC 2691): 64 µg/mL (≈ 63 µM)
MIC Enterococcus faecalis (GC 3059) ([3]; strain GC 3059): >64 µg/mL
MIC Enterococcus faecalis (GC 4552) ([3]; strain GC 4552): 64 µg/mL (≈ 63 µM)
MIC Enterococcus faecalis (GC 4553) ([3]; strain GC 4553): 64 µg/mL (≈ 63 µM)
MIC Enterococcus faecalis (GC 4554) ([3]; strain GC 4554): 64 µg/mL (≈ 63 µM)
MIC Enterococcus faecium (GC 4556) ([3]; strain GC 4556): 32 µg/mL (≈ 31.5 µM)
MIC Enterococcus faecium (GC 4557) ([3]; strain GC 4557): 64 µg/mL (≈ 63 µM)
MIC Enterococcus avium (GC 4558) ([3]; strain GC 4558): 64 µg/mL (≈ 63 µM)
MIC Enterococcus faecalis (GC 6189) ([3]; strain GC 6189): >64 µg/mL
MIC ([3]; strain ATCC 29212, read-out: MIC Enterococcus faecalis (ATCC 29212)): 64 µg/mL (≈ 63 µM)
MIC ([3]; strain GC 2242, read-out: MIC Enterococcus faecalis (GC 2242)): 64 µg/mL (≈ 63 µM)
MIC ([3]; strain GC 2243, read-out: MIC Enterococcus faecium (GC 2243)): 64 µg/mL (≈ 63 µM)
MIC ([3]; strain GC 2691, read-out: MIC Enterococcus faecalis (GC 2691)): 64 µg/mL (≈ 63 µM)
MIC ([3]; strain GC 3059, read-out: MIC Enterococcus faecalis (GC 3059)): > 64 µg/mL
MIC ([3]; strain GC 4552, read-out: MIC Enterococcus faecalis (GC 4552)): 64 µg/mL (≈ 63 µM)
MIC ([3]; strain GC 4553, read-out: MIC Enterococcus faecalis (GC 4553)): 64 µg/mL (≈ 63 µM)
MIC ([3]; strain GC 4554, read-out: MIC Enterococcus faecalis (GC 4554)): 64 µg/mL (≈ 63 µM)
MIC ([3]; strain GC 4556, read-out: MIC Enterococcus faecium (GC 4556)): 32 µg/mL (≈ 31.5 µM)
MIC ([3]; strain GC 4557, read-out: MIC Enterococcus faecium (GC 4557)): 64 µg/mL (≈ 63 µM)
MIC ([3]; strain GC 4558, read-out: MIC Enterococcus avium (GC 4558)): 64 µg/mL (≈ 63 µM)
MIC ([3]; strain GC 6189, read-out: MIC Enterococcus faecalis (GC 6189)): > 64 µg/mL
MIC ([4]; ATCC25922, strain ATCC 25922, read-out: MIC Escherichia coli (ATCC 25922)): > 64 µg/mL
MIC ([4]; strain GC 4559, read-out: MIC Escherichia coli (GC 4559)): > 64 µg/mL
MIC ([4]; strain GC 4560, read-out: MIC Escherichia coli (GC 4560)): > 64 µg/mL
SMILES: Cc1cccc(Oc2ccc(-c3nc4cc(C[C@@H]5NC(=O)[C@H](C(C)c6ccccc6)NC(=O)CNC(=O)[C@H](CO)NC(=O)[C@H](C(O)C6CNC(=N)N6)NC(=O)[C@H](C(O)C6CNC(=N)N6)NC5=O)ccc4o3)cc2)c1 (stereo partly drawn) [Example 41, Cyclo[3-[2-[4-(3-methylphenoxy)phenyl]benzoxazol-5-yl]alanyl-3-(2-iminoimidazolidin-4-yl)-seryl-3-(2-iminoimidazolidin-4-yl)serylserylglycyl-β-methylphenylalanyl]]
MIC ([2]; strain GC 4546, read-out: MIC Staphylococcus haemolyticus (GC 4546)): 64 µg/mL (≈ 63 µM)

Source: patent publication US6914045B2, “Glycopeptide antibiotics” (Wyeth Holdings Corporation, priority 2001, dated 2005)
